Results on 2 compounds are retold here after article PMC6222646, “HIV-1 Integrase-Targeted Short Peptides Derived from a Viral Protein R Sequence” (Molecules : A Journal of Synthetic Chemistry and Natural …, 2018).

Where “and” joins values, the source holds several entries; their conditions need not be identical. Identical values can stand only once. Where a SMILES comes first, the peptide text is derived from it.

Assay [1] has as its target T1, HIV-1 IN (Human immunodeficiency virus type 1 group M subtype B, UniProt P12497). As to the kind of experiment: HTRF-based IN multimerization assay. Particulars: 100 µM peptide. Set-up: WT HIV-1 IN recombinant proteins with His or FLAG tags; made in house; host or cells: Escherichia coli. The class given is biochemical. The protocol:
WT HIV-1 IN recombinant proteins with His or FLAG tags were expressed in Escherichia coli and purified as described previously. The His6–tagged IN construct was purified by loading the cell lysate onto a Nickel-Sepharose column (GE Healthcare, Chicago, IL, USA) and eluting bound integrase with an imidazole gradient in a 50 mM HEPES (pH 7.5) buffer containing 1 M NaCl, 7.5 mM CHAPS, 2 mM beta-mercaptoethanol. Peak fractions were pooled, diluted and loaded onto a heparin column (GE Healthcare), and integrase was eluted with an increasing NaCl gradient in a 50 mM HEPES (pH 7.5) buffer containing 7.5 mM CHAPS and 2 mM beta-mercaptoethanol. The FLAG-tagged IN construct was purified by loading the ammonium sulfate precipitate of cell lysate onto a phenyl-Sepharose column (GE Healthcare) and eluting bound integrase with a decreasing ammonium sulfate gradient in a 50 mM HEPES (pH 7.5) buffer containing 200 mM NaCl, 7.5 mM CHAPS, 2 mM beta-mercaptoethanol. Peak fractions were pooled and loaded onto a heparin column (GE Healthcare), and integrase was eluted with an increasing NaCl gradient in a 50 mM HEPES (pH 7.5) buffer containing 7.5 mM CHAPS and 2 mM beta-mercaptoethanol. […] The HTRF signal was recorded using a PerkinElmer EnSpire multimode plate reader.

In assay [2] the target is T2, HIV-1 integrase (IN) (Human immunodeficiency virus type 1 group M subtype B, UniProt P12497). Put plainly: In vitro integrase catalytic assay, 3'-processing (3'-P). Type of assay: biochemical. Particulars: 400 nM IN, 20 nM 32P-labeled 21T/21B DNA, 37 °C, 2 h. As to the method: (§1) IN reactions were performed as previously described. […] Reactions were performed at 37 °C (2 h) and quenched by the addition of an equal volume of loading buffer (formamide containing 1% sodium dodecyl sulfate, 0.25% bromophenol blue, and xylene cyanol). Reaction products were separated in 16% polyacrylamide denaturing sequencing gels. Dried gels were visualized using a Typhoon 8600 instrument (GE Healthcare, Chicago, IL, USA). Densitometric analyses were performed using ImageQuant 5.1 software (GE Healthcare, Chicago, IL, USA). Data analyses (linear regression, 50% inhibitory concentration [IC50] determination, standard deviation [SD]) were performed from at least 3 independent determinations using Prism 5.0c software from GraphPad (La Jolla, CA, USA). To assay 3′-P inhibitory potency, reactions were carried out with [γ-^32P]-labeled full-length oligonucleotide 21T ([…]) annealed to the complementary oligonucleotide 21B ([…]). Formation of the shorter processed 19T products was monitored and quantified to assess enzyme performance and inhibitor potency. The ST reactions were carried out with the [γ-^32P]-labeled pre-cleaved oligonucleotide 19T ([…]) annealed to the complementary oligonucleotide 21B ([…]) and formation of integration products (longer and slower migrating than the starting 19T substrate) was monitored to assess enzyme performance and inhibitor potency.

In assay [3] the target is T2, HIV-1 integrase (IN). As to the kind of experiment: In vitro integrase catalytic assay, strand transfer (ST). The class given is biochemical. As to conditions: 400 nM IN, 20 nM 32P-labeled pre-cleaved 19T/21B DNA, 37 °C, 2 h. The protocol:
as §1

Another assay addresses IN-DNA complex (Human immunodeficiency virus type 1 group M subtype B, UniProt P12497). Put plainly: IN-DNA complex formation by fluorescence anisotropy. Type of assay: binding, HIV-1. As to conditions: IN (400 nM) preincubated with peptide, 10 nM DNA. As to the method:
(§2) DNA binding was measured using a plate-based assay following fluorescence polarization of a fluorescent 21-mer duplex DNA substrate (21T/21B duplex oligonucleotide) with an AlexaFluor 488 modification at the 5′-end of the 21T oligonucleotide. Peptide or DMSO (control, without peptide) were incubated at room temperature for 5 min in the IN-activity buffer in the absence or the presence of IN (400 nM). After addition of the DNA (10 nM), fluorescence anisotropy was measured every 30 s for 30 min using an Envision plate reader (Perkin Elmer, Waltham, MA, USA).

The test system of assay [4] is 21-mer duplex DNA substrate (21T/21B). As to the kind of experiment: Binding to DNA substrate alone by fluorescence anisotropy. Particulars: absence of IN; concentrations up to 37 µM. As to the method:
as §2

Assay [5] concerns the target T1, HIV-1 IN. As to the kind of experiment: UV photo-crosslinking to IN with Western blot detection. The class given is binding. Particulars: 15 (111 µM), IN (3.2 µM). As to the method:
Peptide 15 (111 µM), containing a photo-reactive Bpa group and a biotin linked to its amino terminus, was incubated for 2 h at 37 °C in the absence or the presence of IN (3.2 µM) before UV irradiation (5 min at […]). After adding 2 × 10 µL of loading buffer, samples were heat-denatured at 95 °C (5 min). Products were separated on 16% SDS-PAGE and transferred to a PVDF membrane using an iBlot system (Invitrogen, Carlsbad, CA, USA). […] Reading was performed using an Odyssey® Infrared Imaging System (LI-COR Biotechnology, Lincoln, NE, USA).

For the compound `CC[C@H](C)[C@H](NC(=O)[C@H](CCCNC(=N)N)NC(=O)[C@H](Cc1ccccc1)NC(=O)[C@H](Cc1c[nH]cn1)NC(=O)[C@@H](NC(=O)[C@@H](N)Cc1ccccc1)[C@@H](C)CC)C(=O)NCC(=O)O` [Peptide 1a, FIHFRIG] (H-FIHFRIG-OH), on HIV-1 IN [1], the “Induction of higher-order IN multimerization (HTRF signal)” value is “did not induce higher-order IN multimerization”. The IC50 on HIV-1 integrase (IN) [2] is 17600 ± 1200 nM; at HIV-1 integrase (IN) [3], 1000 nM and 1300 nM. The “Effect on IN-DNA complex formation (fluorescence polarization)” value on IN-DNA complex is on record as “did not block the IN–DNA interactions, but rather promoted IN–DNA complex formation”. The “Binding to DNA substrate alone” value in assay [4] is “no detectable binding”.
As for Biotin-linker-BIHFRIG [Peptide 15], the IC50 stood at 32000 ± 7000 nM against HIV-1 integrase (IN) [2] and 2300 ± 300 nM against HIV-1 integrase (IN) [3]. In addition, the “Covalent crosslinking to IN upon UV irradiation” value at HIV-1 IN [5] is reported as “covalent adducts of 15 with IN”.
